Assay results as given in US11725010B2, “Polyheterocyclic compounds as METTL3 inhibitors” (Storm Therapeutics Limited, priority 2019, dated 2023).
Where two headings read alike, the source gives them in different places.

Assays:
[1] = system: Caov-3 cells; test: Caov3 CTG proliferation assay; format: cell-based; details: Homo sapiens
Description: CTG Assay (Caov3 Cell Line)
Upon treatment, Coav-3 cells were incubated for 10 min at RT with the CellTiter-Glo reagent (G7571, Promega). Measurement of the luminescence signal was performed on a microplate reader (Ensight, PerkinElmer).
Caov3 CTG Assay—Proliferation Assay

[2] = target: METTL3/14 (Homo sapiens (Human), UniProt Q86U44)
[3] = Caov-3, treated for 120 hours, CellTiter-Glo luminescence, read-out: Caov3 cells IC50

Chain of METTL3/14 (Q86U44 whole entry): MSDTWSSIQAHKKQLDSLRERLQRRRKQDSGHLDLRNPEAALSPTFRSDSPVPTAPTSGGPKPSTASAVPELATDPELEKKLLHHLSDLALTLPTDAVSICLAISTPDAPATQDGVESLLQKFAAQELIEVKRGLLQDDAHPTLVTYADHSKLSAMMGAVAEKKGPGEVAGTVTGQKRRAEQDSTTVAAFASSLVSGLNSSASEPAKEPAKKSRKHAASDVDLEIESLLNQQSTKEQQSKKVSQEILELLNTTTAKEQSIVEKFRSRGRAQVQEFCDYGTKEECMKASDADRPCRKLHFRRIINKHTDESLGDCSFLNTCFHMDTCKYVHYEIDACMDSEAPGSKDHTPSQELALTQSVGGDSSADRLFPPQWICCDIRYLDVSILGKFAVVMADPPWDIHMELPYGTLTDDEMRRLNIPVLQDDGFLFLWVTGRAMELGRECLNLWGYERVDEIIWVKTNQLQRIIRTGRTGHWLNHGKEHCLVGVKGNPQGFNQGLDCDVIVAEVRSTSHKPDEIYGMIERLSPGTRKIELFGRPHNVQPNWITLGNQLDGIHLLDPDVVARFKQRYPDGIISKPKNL
Chain of METTL3/14 (Q9HCE5 whole entry partner): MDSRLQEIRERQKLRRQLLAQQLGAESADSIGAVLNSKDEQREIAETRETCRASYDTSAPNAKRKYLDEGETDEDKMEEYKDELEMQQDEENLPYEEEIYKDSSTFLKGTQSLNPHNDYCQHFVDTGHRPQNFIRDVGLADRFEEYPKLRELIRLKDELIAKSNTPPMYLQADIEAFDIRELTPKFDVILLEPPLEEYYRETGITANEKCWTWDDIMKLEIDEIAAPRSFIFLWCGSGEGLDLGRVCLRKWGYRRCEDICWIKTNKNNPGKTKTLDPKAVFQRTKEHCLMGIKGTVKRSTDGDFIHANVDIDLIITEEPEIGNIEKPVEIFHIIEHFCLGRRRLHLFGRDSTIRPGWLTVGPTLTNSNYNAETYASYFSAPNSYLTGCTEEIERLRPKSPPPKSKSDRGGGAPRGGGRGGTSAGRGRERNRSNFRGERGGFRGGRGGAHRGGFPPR

SMILES | IC50 [1, 3] | IC50 [2] | IC50 ([1]; Caov-3, 120 h, read-out: Caov3 cells IC50 nM)
c1cc(-c2cn(Cc3cnc4cc(CNCC5CCC5)[nH]c4c3)nn2)c2cn[nH]c2c1 [Example 59, N-(cyclobutylmethyl)-1-[6-[[4-(1H-indazol-4-yl)triazol-1-yl]methyl]-1H-pyrrolo[3,2-b]pyridin-2-yl]methanamine] | 524 nM | 6.1 nM | 
O=C(NCc1ccc2cc(CNCC3CCC3)[nH]c2c1)c1cnc2[nH]ccc2c1 [Example 137, N-[(2-{[(cyclobutylmethyl)amino]methyl}-1H-indol-6-yl)methyl]-1H-pyrrolo[2,3-b]pyridine-5-carboxamide] | 1080 nM | 6.1 nM | 
c1cc(-c2cn(Cc3ccc4cc(CNCC5CCC5)[nH]c4c3)nn2)c2cn[nH]c2c1 [Example 58, N-(cyclobutylmethyl)-1-[6-[[4-(1H-indazol-4-yl)triazol-1-yl]methyl]-1H-indol-2-yl]methanamine] | 702 nM | 6.1 nM | 
c1cc(-c2cn(Cc3ccc4cc(CNC5CCCC5)[nH]c4c3)nn2)c2cn[nH]c2c1 [Compound 55, N-[[6-[[4-(1H-indazol-4-yl)triazol-1-yl]methyl]-1H-indol-2-yl]methyl]cyclopentanamine] | 764 nM | 6.1 nM | 
CC(C)(C)CNCc1cc2ccc(CNC(=O)c3cc(=O)n4ccccc4n3)cc2[nH]1 [Compound 34, N-[[2-[(2,2-dimethylpropylamino)methyl]-1H-indol-6-yl]methyl]-4-oxo-pyrido[1,2-a]pyrimidine-2-carboxamide] | 988 nM | 6.1 nM | 
O=C(NCc1ccc2cc(CNCC3(O)CCCC3)[nH]c2c1)c1cc(=O)n2ccccc2n1 [Compound 15, N-[[2-[[(1-hydroxycyclopentyl)methylamino]methyl]-1H-indol-6-yl]methyl]-4-oxo-pyrido[1,2-a]pyrimidine-2-carboxamide] | 658 nM | 6.1 nM | 
O=C(NCc1ccc2cc(CN[C@H]3CCC[C@@H]3O)[nH]c2c1)c1cc(=O)n2ccccc2n1 [Compound 36, N-{[2-({[(1S,2S)-2-hydroxycyclopentyl]amino}methyl)-1H-indol-6-yl]methyl}-4-oxo-4H-pyrido[1,2-a]pyrimidine-2-carboxamide] |  | 6.1 nM | 973 nM
O=C(NCc1cnc2cc(CNCC34CC(F)(C3)C4)[nH]c2c1)c1cc(=O)n2ccccc2n1 [Compound 127, N-[(2-{[({3-fluorobicyclo[1.1.1]pentan-1-yl}methyl)amino]methyl}-1H-pyrrolo[3,2-b]pyridin-6-yl)methyl]-4-oxo-4H-pyrido[1,2-a]pyrimidine-2-carboxamide] | 624 nM | 6.1 nM | 
CC1(CNCc2cc3ccc(CNC(=O)c4cc(=O)n5ccccc5n4)cc3[nH]2)CC1 [Example 6, N-[[2-[[(1-methylcyclopropyl)methylamino]methyl]-1H-indol-6-yl]methyl]-4-oxo-pyrido[1,2-a]pyrimidine-2-carboxamide] | 756 nM | 6.1 nM | 
O=c1cc(-c2cn(Cc3ccc4cc(CNCC5CCC5)[nH]c4c3)nn2)nc2ccccn12 [Example 62, 2-[1-[[2-[(cyclobutylmethylamino)methyl]-1H-indol-6-yl]methyl]triazol-4-yl]pyrido[1,2-a]pyrimidin-4-one] | 696 nM | 6.1 nM | 
O=C(NCc1ccc2cc(CNC34CC5CC(CC(C5)C3)C4)[nH]c2c1)c1cc(=O)n2ccccc2n1 [Compound 11, N-[[2-[(1-adamantylamino)methyl]-1H-indol-6-yl]methyl]-4-oxo-pyrido[1,2-a]pyrimidine-2-carboxamide] | 607 nM | 6.1 nM | 
OC1(CNCc2cc3ccc(Cn4cc(-c5cccc6[nH]ncc56)nn4)cc3[nH]2)CCC1 [Compound 57, 1-[[[6-[[4-(1H-indazol-4-yl)triazol-1-yl]methyl]-1H-indol-2-yl]methylamino]methyl]cyclobutanol] | 1060 nM | 6.1 nM | 
